Experimental data from PMC6067974 (Neuropharmacology, 2018).
pEC50, pKi: −log10 of the molar value.

How the values were obtained:
mouse A1AR = target: T1, mouse A1AR (Mus musculus, UniProt Q60612); assay: Radioligand binding, mouse A1AR; settings: ratio of rat Ki to mouse Ki at A1AR
T1 sequence (Q60612 1-326): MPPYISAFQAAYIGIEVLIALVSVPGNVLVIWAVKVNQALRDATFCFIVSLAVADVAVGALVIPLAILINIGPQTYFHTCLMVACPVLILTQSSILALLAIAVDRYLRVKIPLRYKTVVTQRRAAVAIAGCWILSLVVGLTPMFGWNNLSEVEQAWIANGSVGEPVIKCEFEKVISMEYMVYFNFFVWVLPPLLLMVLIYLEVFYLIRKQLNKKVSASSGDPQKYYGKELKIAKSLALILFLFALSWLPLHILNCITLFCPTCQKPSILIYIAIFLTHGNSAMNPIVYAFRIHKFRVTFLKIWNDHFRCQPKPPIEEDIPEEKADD

[1] = target: serotonin transporter (SERT) (Homo sapiens, UniProt P31645); assay: PDSP off-target radioligand binding, serotonin transporter
Sequence of serotonin transporter (SERT) (P31645 whole entry): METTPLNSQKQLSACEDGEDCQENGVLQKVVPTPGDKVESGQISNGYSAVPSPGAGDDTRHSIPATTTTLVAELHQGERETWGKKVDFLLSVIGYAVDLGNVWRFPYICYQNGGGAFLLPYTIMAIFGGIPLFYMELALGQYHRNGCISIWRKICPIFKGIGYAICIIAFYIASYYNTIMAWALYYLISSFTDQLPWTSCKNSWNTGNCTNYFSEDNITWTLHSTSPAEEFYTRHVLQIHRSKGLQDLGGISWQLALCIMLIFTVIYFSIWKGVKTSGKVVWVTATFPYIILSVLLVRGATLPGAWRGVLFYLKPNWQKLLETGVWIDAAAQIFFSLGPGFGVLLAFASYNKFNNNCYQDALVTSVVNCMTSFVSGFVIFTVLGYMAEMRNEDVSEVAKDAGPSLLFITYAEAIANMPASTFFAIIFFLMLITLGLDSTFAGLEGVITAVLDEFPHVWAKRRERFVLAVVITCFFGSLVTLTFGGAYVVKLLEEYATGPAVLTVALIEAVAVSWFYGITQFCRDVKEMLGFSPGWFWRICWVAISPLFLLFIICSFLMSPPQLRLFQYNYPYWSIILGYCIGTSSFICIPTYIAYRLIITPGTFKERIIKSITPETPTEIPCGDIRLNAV

mouse A2BAR [2] = assay: Cell-based assay at mouse A2BAR; settings: EC50 2.8 nM vs Ki 136 nM
mice [3] = assay: Telemetric monitoring of Tb and physical activity in mice; type: in vivo, mouse
[4] = system: hypothalamic neurons (Fos); assay: Drug-induced neuronal activation; type: in vivo, mouse; settings: BAY60-6583 0.004 mg/kg i.c.v.; Adora1−/−;Adora3−/− mice; 1 h; vs vehicle
mouse A2AAR = mouse A2AAR (Mus musculus, UniProt Q60613); settings: read-out: mouse Ki, A2AAR, ref Alnouri et al., 2015; cited from earlier work
Sequence of mouse A2AAR (Q60613 whole entry): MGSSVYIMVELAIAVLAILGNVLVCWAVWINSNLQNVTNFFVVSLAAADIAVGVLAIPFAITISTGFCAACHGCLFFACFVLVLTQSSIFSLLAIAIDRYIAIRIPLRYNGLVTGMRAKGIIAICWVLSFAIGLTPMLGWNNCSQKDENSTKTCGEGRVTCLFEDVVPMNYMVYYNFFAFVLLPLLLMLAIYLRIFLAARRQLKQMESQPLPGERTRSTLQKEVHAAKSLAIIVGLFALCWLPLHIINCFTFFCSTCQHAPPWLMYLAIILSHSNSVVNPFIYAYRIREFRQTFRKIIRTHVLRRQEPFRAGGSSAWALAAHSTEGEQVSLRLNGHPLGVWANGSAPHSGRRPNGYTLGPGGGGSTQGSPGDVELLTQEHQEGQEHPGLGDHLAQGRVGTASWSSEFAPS

A1AR = settings: read-out: rat Ki, A1AR, ref Alnouri et al., 2015; cited from earlier work
mouse A2BAR [5] = settings: ref van der Hoeven et al., 2011, cited from earlier work
mice [6] = assay: Indirect calorimetry; settings: BAY60-6583 1 mg/kg, i.p.; C57BL/6J mice
[7] = BAY60-6583 0.5–2 mg/kg, i.p., C57BL/6J mice

With `N#Cc1c(N)nc(SCC(N)=O)c(C#N)c1-c1ccc(OCC2CC2)cc1` [BAY60-6583, 2-[6-amino-3,5-dicyano-4-[4-(cyclopropylmethoxy)phenyl]pyridin-2-ylsulfanyl]acetamide] the “A1AR rat: mouse ratio” value (mouse A1AR) was 1.5, the pKi [1] was 5.25 and the “EC50 better than the binding affinity at A2BAR” value (mouse A2BAR [2]) was 50 fold. For the same compound, the “Tb response (hypothermia)” value (mice [3]; BAY60-6583 0.004 mg/kg i.c.v., Adora1−/−;Adora3−/− mice) was “more modest effects”, the “Tb response (hypothermia)” value (mice [3]; BAY60-6583 0.004 mg/kg, i.c.v., C57BL/6J (WT) mice) was “caused hypothermia” and the “Tb response (hypothermia)” value (mice [3]; BAY60-6583 0.04 mg/kg i.c.v., Adora1−/−;Adora3−/− mice) was “profound, prolonged hypothermia”. The “Tb response (hypothermia)” value (mice [3]; BAY60-6583 1 mg/kg, i.p., Adora2b−/− mice, 1 mg/kg) was “completely abolished”, the “Tb response (hypothermia)” value (mice [3]; BAY60-6583 1 mg/kg, i.p., KitW−sh/W−sh mice) was “intact” and the “Tb response (hypothermia)” value (mice [3]; [7]) was “dose-dependent hypothermia”. For the same compound, the physical activity (mice [3]; [7]) was “hypoactivity”, the “i.c.v. dose as fraction of a similarly hypothermic i.p. dose” value (mice [3]; BAY60-6583, i.c.v. vs i.p.) was 1/150 and the “Tb response (hypothermia)” value (mice [3]; BAY60-6583 i.p., Adora1−/−;Adora3−/− mice, not shown) was “intact”. The “Fos immunoreactivity, dorsomedial hypothalamus (DMH)” value [4] was “not significantly different”, the “Fos immunoreactivity, ventromedial hypothalamus (VMH)” value [4] was “not significantly different” and the “Fos immunostaining, paraventricular hypothalamus (PVH)” value [4] was “increased Fos immunostaining”. For the same compound, the “Fos immunostaining, preoptic area (POA)” value [4] was “increased Fos immunostaining”, the pKi (mouse A2AAR) was < 5.00 and the pKi (A1AR) was 6.29. The “adenosine receptor activation selectivity” value (mouse A2BAR [5]; not mouse A1AR, A2AAR, or A3AR) was “activate only mouse A2BAR”, the pEC50 (mouse A2BAR [5]; read-out: EC50 at mouse A2BAR, cell-based assay) was 8.55 and the food intake (mice [6]) was “lowered”. The “metabolic rate (total energy expenditure)” value (mice [6]) was “lowered metabolic rate” and the respiratory exchange ratio (mice [6]) was “lowered”.
